# Results published in US11590129B2, “Combination therapy with an antitumor alkaloid” (PHARMA MAR, S.A., priority 2010, dated 2023).
# Like-named read-outs stand apart in the source and are kept apart here.
# Tests used:
# [1] = test system: SK-MEL-2 human melanoma cell line; assay: cells
# Protocol: (§1) a. […] Briefly, cells were harvested and seeded in 96 well microtiter plates at a density of 5,000 cells in 150 μL of culture medium and incubated for 24 hours in drug-free medium before treatment with vehicle alone or test compounds for 72 h.
# (§2) The cytotoxic effect was measured by the MTT reduction assay, in which 3-(4,5-Dimethylthiazol-2-yl)-2,5-diphenyltetrazolium bromide, a tetrazole, which is reduced to purple formazan in the mitochondria of living cells, was used. MTT (50 μL of 1 mg/mL stock solution) was added to the wells and incubated for 8 hours at 37° C. until formazan crystals were formed. After gently removing the culture medium, DMSO was added to dissolve the insoluble purple formazan product into a colored solution. […] Results were expressed as percentage of control cell growth.
# (§3) b. In a second set of assays, A549 human tumor cells were incubated with PM01183 in combination with each of the agents mentioned above.
# (§4) As a visual aid, response values were plotted on a scatter plot with dose ratios given on the x-axis and % response values on the y-axis. […] In cases where response values at the two endpoints were approximately equivalent, points lying above or below this predicted line of additivity could be interpreted as representing antagonistic or synergistic drug interaction, respectively.
# (§5) Additional serial dilutions were prepared in serum-free culture medium to achieve a final 4× concentration. Aliquots of 50 μL of each diluted compound were added per well.
# SK-MEL-2 was the human melanoma cell line selected for this assay.
# [2] = test system: PC-3 human prostate cancer cell line; assay: cells
# In short: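 Cells seeded at 5,000/well, grown 24 h drug-free, then exposed to vehicle or test compounds for 72 h. Viability by MTT reduction (8 h, 37 °C), formazan dissolved in DMSO. Values given as percentage of control cell growth.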
# [3] = test system: PANC-1 human pancreatic carcinoma cell line; assay: cells
# Protocol: as §1, §2, §3, §4, §5
# PANC-1 was the human pancreatic carcinoma cell line selected for this assay.
# [4] = test system: HGC-27 human gastric carcinoma cell line; assay: cells
# [5] = test system: IGROV-1 human ovarian adenocarcinoma cell line; assay: cells
# [6] = test system: HepG2 human hepatocellular liver carcinoma cell line; assay: MTT cytotoxicity assay in HepG2 cells: IC50 of single agents and combinations with PM01183; assay type: cell-based
# [7] = test system: MDA-MB-231 human breast adenocarcinoma cell line; assay: cells
# [8] = test system: RXF-393 human kidney carcinoma cell line; assay: cells
# [9] = test system: HT-29 human colon adenocarcinoma cell line; assay: cells
# In short: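 HT-29 cells (5,000/well) were attached for 24 h, then exposed to vehicle or compounds for 72 h. Viability was read by MTT reduction, with 8 h MTT at 37° C and formazan dissolved in DMSO. Values are % of control cell growth.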
# [10] = test system: U87-MG human glioblastoma cell line; assay: cells
# [11] = test system: HGC-27 tumors; assay: Human gastric tumor xenografts (HGC-27) in athymic nude mice, tumor volume % T/C; assay type: in vivo
# Protocol: (§6) Female athymic nude mice (Harlan Laboratories Models, S.L. (Barcelona, Spain) were utilized for all experiments. Animals were housed in individually ventilated cages, up to ten per cage in a 12-hour light-dark cycle at 21-23° C. and 40-60% humidity. The mice were allowed free access to irradiated standard rodent diet and sterilized water. Animals were acclimated for at least 5 days prior to tumor implantation with a tumor cell suspension.
# HGC-27 cells were grown at 37° C. with 5% CO2 in Iscove's modified Dulbeco's medium (IDMD).
# PM01183 was provided in the form of vials of lyophilized PM01183 cake which was reconstituted with water for infusion to a concentration of 0.2 mg/mL. The PM01183 stock solution was further diluted in 5% glucose solution for injection to the dosing formulation concentrations. Cisplatin and 5-fluorouracil were provided as solutions prepared by diluting the product with 0.9% saline solution for injection to the target final concentration.
# (§7) Dose level groups were administered either as single agents or in combination.
# (§8) Comparison of the median tumor volume in the treatment groups (T) to the median tumor volume in the control group (T/C×100%) was used for evaluation of the antitumor efficacy.
# [12] = test system: A2780 tumors; assay: Human ovarian tumor xenografts (A2780) in athymic nude mice, tumor volume % T/C; assay type: in vivo
# Protocol: as §6
# The formula to calculate volume for a prolate ellipsoid was used to estimate tumor volume (mm^3) from 2-dimensional tumor measurements: Tumor volume (mm^3)=[L×W^2]÷2, where L is the length and it is the longest diameter in mm, and W is the width and it is the shortest diameter in mm of a tumor. Assuming unit density, volume was converted to weight (i.e., 1 mm^3=1 mg). Tumor volume and animal body weights were measured 2-3 times per week starting form the first day of treatment (Day 0).
# PM01183 was provided in the form of vials of lyophilized PM01183 cake which was reconstituted with water for infusion to a concentration of 0.2 mg/mL. The PM01183 stock solution was further diluted in 5% glucose solution for injection to the dosing formulation concentrations. […] Vinorelbine was provided as a solution prepared by diluting the product with 0.9% saline solution.
# as §7, §8
# Day 9 for PM01183 and vinorelbine study) using the median-effect principle (Chou T. C. Pharmacol. Rev.
# [13] = test system: A549 human lung carcinoma cell line; assay: MTT cytotoxicity assay in A549 cells: IC50 of single agents and combinations with PM01183; assay type: cell-based; conditions: Homo sapiens
# In short: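 A549 cells seeded at 5,000 per well, grown 24 h drug-free, then exposed to vehicle or compounds for 72 h, either singly or combined with PM01183. Combination responses plotted against dose ratio relative to an additivity line.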
# [14] = test system: A673 human rhabdomyosarcoma cell line; assay: cells; conditions: Homo sapiens, A673, 72 h
# Protocol: as §1, §2, §3, §4, §5
# A673 was the human rhabdomyosarcoma cell line selected for this assay.
# [15] = cisplatin 1.5 mg/kg iv days 0,7
# [16] = cisplatin 3.0 mg/kg iv days 0,7
# [17] = cisplatin 4.5 mg/kg iv days 0,7
# [18] = cisplatin 6.0 mg/kg iv days 0,7
# [19] = doxorubicin 2.0 mg/kg iv days 0,7
# [20] = doxorubicin 4.0 mg/kg iv days 0,7
# [21] = doxorubicin 6.0 mg/kg iv days 0,7
# [22] = doxorubicin 8.0 mg/kg iv days 0,7
smiles,measurement,setting,value
"N.N.[Cl][Pt][Cl] [Cisplatin, cisplatin]",IC50,"[1]; SK-MEL-2, 72 hours drug exposure, MTT",160 µM
same,IC50,"[2]; PC-3, 72 hours drug exposure, MTT",110 µM
same,IC50,"[3]; PANC-1, 72 hours drug exposure, MTT",147 µM
same,IC50,"[4]; HGC-27, 72 hours drug exposure, MTT",80 µM
same,IC50,"[5]; IGROV-1, 72 hours drug exposure, MTT",70 µM
same,IC50,"[6]; HepG2, 72 hours drug exposure, MTT, read-out: IC50",50 µM
same,IC50,"[7]; MDA-MB-231, 72 hours drug exposure, MTT",153 µM
same,IC50,"[8]; RXF-393, 72 hours drug exposure, MTT",66.7 µM
same,IC50,"[9]; HT-29, 72 hours drug exposure, MTT",220 µM
same,IC50,"[10]; U87-MG, 72 hours drug exposure, MTT",44 µM
same,% T/C on day 0,[11]; [15],99.3%
same,% T/C on day 3,[11]; [15],78.1%
same,% T/C on day 5,[11]; [15],78.8%
same,% T/C on day 7,[11]; [15],82.6%
same,% T/C on day 10,[11]; [15],83.5%
same,% T/C on day 12,[11]; [15],86.6%
same,% T/C on day 14,[11]; [15],89.9%
same,% T/C on day 0,[11]; [16],99.0%
same,% T/C on day 3,[11]; [16],78.6%
same,% T/C on day 5,[11]; [16],80.0%
same,% T/C on day 7,[11]; [16],78.7%
same,% T/C on day 10,[11]; [16],81.3%
same,% T/C on day 12,[11]; [16],82.8%
same,% T/C on day 14,[11]; [16],85.1%
same,% T/C on day 0,[11]; [17],98.5%
same,% T/C on day 3,[11]; [17],90.5%
same,% T/C on day 5,[11]; [17],94.5%
same,% T/C on day 7,[11]; [17],90.2%
same,% T/C on day 10,[11]; [17],75.7%
same,% T/C on day 12,[11]; [17],73.7%
same,% T/C on day 14,[11]; [17],81.1%
same,% T/C on day 0,[11]; [18],97.7%
same,% T/C on day 3,[11]; [18],76.1%
same,% T/C on day 5,[11]; [18],79.0%
same,% T/C on day 7,[11]; [18],75.1%
same,% T/C on day 10,[11]; [18],64.4%
same,% T/C on day 12,[11]; [18],61.3%
same,% T/C on day 14,[11]; [18],72.7%
"COc1cccc2c1C(=O)c1c(O)c3c(c(O)c1C2=O)C[C@@](O)(C(=O)CO)C[C@@H]3O[C@H]1C[C@H](N)[C@H](O)[C@H](C)O1 [Doxorubicin, doxorubicin]",IC50,"[1]; Homo sapiens, SK-MEL-2, 72 h",0.3 µM
same,IC50,"[2]; Homo sapiens, PC-3, 72 h",1.48 µM
same,IC50,"[3]; Homo sapiens, PANC-1, 72 h",3.45 µM
same,IC50,"[4]; Homo sapiens, HGC-27, 72 h",0.054 µM
same,IC50,"[5]; Homo sapiens, IGROV-1, 72 h",0.259 µM
same,IC50,"[6]; Homo sapiens, HepG2, 72 h",0.2 µM
same,IC50,"[7]; Homo sapiens, MDA-MB-231, 72 h",0.6 µM
same,IC50,"[8]; Homo sapiens, RXF 393, 72 h",0.8 µM
same,IC50,"[9]; Homo sapiens, HT-29, 72 h",0.9 µM
same,IC50,"[10]; Homo sapiens, U-87 MG, 72 h",0.3 µM
same,% T/C on day 0,[12]; [19],99.8%
same,% T/C on day 3,[12]; [19],91.5%
same,% T/C on day 5,[12]; [19],93.1%
same,% T/C on day 7,[12]; [19],94.2%
same,% T/C on day 10,[12]; [19],86.2%
same,% T/C on day 0,[12]; [20],102.0%
same,% T/C on day 3,[12]; [20],82.9%
same,% T/C on day 5,[12]; [20],75.1%
same,% T/C on day 7,[12]; [20],75.0%
same,% T/C on day 0,[12]; [21],99.4%
same,% T/C on day 3,[12]; [21],71.0%
same,% T/C on day 5,[12]; [21],60.3%
same,% T/C on day 7,[12]; [21],56.8%
same,% T/C on day 10,[12]; [21],54.3%
same,% T/C on day 0,[12]; [22],99.5%
same,% T/C on day 3,[12]; [22],60.8%
same,% T/C on day 5,[12]; [22],49.8%
same,% T/C on day 7,[12]; [22],48.1%
same,% T/C on day 10,[12]; [22],39.4%
"COc1cc([C@@H]2c3cc4c(cc3[C@@H](O[C@@H]3O[C@@H]5CO[C@@H](C)O[C@H]5[C@H](O)[C@H]3O)[C@H]3COC(=O)[C@H]23)OCO4)cc(OC)c1O [Etoposide, etoposide]",IC50,"[13]; A549, 72 h",0.782 µM
same,IC50,[14],1.55 µM
same,IC50,"[1]; Homo sapiens, SK-MEL-2, 72 h",2.89 µM
same,IC50,"[2]; Homo sapiens, PC-3, 72 h",48 µM
same,IC50,"[3]; Homo sapiens, PANC-1, 72 h",10 µM
same,IC50,"[4]; Homo sapiens, HGC-27, 72 h",2.9 µM
same,IC50,"[5]; Homo sapiens, IGROV-1, 72 h",3.06 µM
same,IC50,"[6]; Homo sapiens, HepG2, 72 h",10.4 µM
same,IC50,"[7]; Homo sapiens, MDA-MB-231, 72 h",4.8 µM
same,IC50,"[8]; Homo sapiens, RXF 393, 72 h",20 µM
same,IC50,"[9]; Homo sapiens, HT-29, 72 h",5.44 µM
same,IC50,"[10]; Homo sapiens, U-87 MG, 72 h",18.5 µM
"CO[C@H]1C[C@@H]2CC[C@@H](C)[C@@](O)(O2)C(=O)C(=O)N2CCCC[C@H]2C(=O)O[C@H]([C@H](C)C[C@@H]2CC[C@@H](OC(=O)C(C)(CO)CO)[C@H](OC)C2)CC(=O)[C@H](C)/C=C(\C)[C@@H](O)[C@@H](OC)C(=O)[C@H](C)C[C@H](C)/C=C/C=C/C=C/1C [Temsirolimus, temsirolimus]",IC50,"[13]; A549, 72 hours drug exposure, MTT, read-out: IC50",3.29 µM
same,IC50,[14],1 µM
same,IC50,"[1]; Homo sapiens, SK-MEL-2, 72 h",50 µM
same,IC50,"[2]; Homo sapiens, PC-3, 72 h",0.5 µM
same,IC50,"[3]; Homo sapiens, PANC-1, 72 h",10 µM
same,IC50,"[4]; Homo sapiens, HGC-27, 72 h",0.15 µM
same,IC50,"[5]; Homo sapiens, IGROV-1, 72 h",0.127 µM
same,IC50,"[7]; Homo sapiens, MDA-MB-231, 72 h",12 µM
same,IC50,"[9]; Homo sapiens, HT-29, 72 h",3.5 µM
same,IC50,"[10]; Homo sapiens, U-87 MG, 72 h",3.5 µM
"CC[C@@]1(O)C(=O)OCc2c1cc1n(c2=O)Cc2cc3c(CN(C)C)c(O)ccc3nc2-1 [Topotecan, topotecan]",IC50,"[13]; A549, 72 h",0.8 µM
same,IC50,[14],0.024 µM
same,IC50,"[1]; Homo sapiens, SK-MEL-2, 72 h",0.437 µM
same,IC50,"[2]; Homo sapiens, PC-3, 72 h",0.633 µM
same,IC50,"[3]; Homo sapiens, PANC-1, 72 h",4.37 µM
same,IC50,"[4]; Homo sapiens, HGC-27, 72 h",0.808 µM
same,IC50,"[5]; Homo sapiens, IGROV-1, 72 h",0.3 µM
same,IC50,"[6]; Homo sapiens, HepG2, 72 h",1 µM
same,IC50,"[7]; Homo sapiens, MDA-MB-231, 72 h",0.166 µM
same,IC50,"[8]; Homo sapiens, RXF 393, 72 h",0.393 µM
same,IC50,"[9]; Homo sapiens, HT-29, 72 h",0.328 µM
same,IC50,"[10]; Homo sapiens, U-87 MG, 72 h",0.75 µM
